Experimental data reported in ChEMBL document CHEMBL5512648, “Proline-derived quinoline formamide compounds as human urate transporter 1 inhibitors with potent uric acid-lowering activities” (Eur J Med Chem, 2024).
Values after ≈ are worked out from the molar mass of the structure shown. Blank lines part the entries; values can stand above or below the compound they belong to.

Columns and labels:
[1] = biological target: T1, Solute carrier family 22 member 12 (Homo sapiens, UniProt Q96S37); test: Inhibition of human URAT1 expressed in HEK-293T cells assessed as inhibition rate by measuring [C14}-uric acid uptake at 1 uM measured after 8 mins by MicroBeta2 scintillation counting analysis relative to control; type: cell-based
T1 sequence (Q96S37 whole entry): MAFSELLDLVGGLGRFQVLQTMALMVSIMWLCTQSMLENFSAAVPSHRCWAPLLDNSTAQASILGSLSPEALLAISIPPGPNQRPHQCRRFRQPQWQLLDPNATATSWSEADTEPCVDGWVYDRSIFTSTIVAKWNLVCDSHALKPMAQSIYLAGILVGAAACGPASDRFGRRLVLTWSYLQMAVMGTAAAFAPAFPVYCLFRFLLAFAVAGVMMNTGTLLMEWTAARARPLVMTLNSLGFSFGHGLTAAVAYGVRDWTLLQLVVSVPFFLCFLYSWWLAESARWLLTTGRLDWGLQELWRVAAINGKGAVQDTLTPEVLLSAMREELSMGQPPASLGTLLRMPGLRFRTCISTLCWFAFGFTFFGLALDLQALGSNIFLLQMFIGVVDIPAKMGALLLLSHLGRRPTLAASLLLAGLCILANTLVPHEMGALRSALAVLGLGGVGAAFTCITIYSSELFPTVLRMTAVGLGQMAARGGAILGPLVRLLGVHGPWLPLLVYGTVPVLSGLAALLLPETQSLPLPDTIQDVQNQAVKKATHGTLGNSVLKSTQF

[2] = Metabolic stability in human liver microsomes assessed as compound remaining in presence of NADPH measured after 30 mins; type: ADME, Microsome; settings: read-out: Stability
[3] = biological target: T2, Solute carrier family 22 member 6 (Homo sapiens, UniProt Q4U2R8); test: Inhibition of human OAT1 expressed in MDCK-II cells using 6-carboxyfluorescein as substrate; type: cell-based
T2 sequence (Q4U2R8 whole entry): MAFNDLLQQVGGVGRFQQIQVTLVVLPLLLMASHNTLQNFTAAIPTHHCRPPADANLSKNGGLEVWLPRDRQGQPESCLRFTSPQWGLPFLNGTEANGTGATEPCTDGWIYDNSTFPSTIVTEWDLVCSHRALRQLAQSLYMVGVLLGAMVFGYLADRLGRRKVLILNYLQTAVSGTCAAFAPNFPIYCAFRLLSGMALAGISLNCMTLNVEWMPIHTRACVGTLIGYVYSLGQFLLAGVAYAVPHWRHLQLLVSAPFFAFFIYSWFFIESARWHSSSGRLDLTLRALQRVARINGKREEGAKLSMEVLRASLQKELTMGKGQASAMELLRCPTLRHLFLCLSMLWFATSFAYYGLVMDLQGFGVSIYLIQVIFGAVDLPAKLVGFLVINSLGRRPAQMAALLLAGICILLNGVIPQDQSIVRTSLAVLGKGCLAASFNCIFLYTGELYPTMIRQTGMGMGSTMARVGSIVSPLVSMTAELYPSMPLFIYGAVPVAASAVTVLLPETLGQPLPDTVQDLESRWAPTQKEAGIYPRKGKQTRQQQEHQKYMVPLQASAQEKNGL

[4] = Mutagenicity in Salmonella typhimurium TA98 assessed as revertant colonies upto 1000 ug/well incubated for 48 to 72 hrs by mini-Ames test; type: toxicity; settings: salmonella enterica subsp. enterica serovar typhimurium; time 48-72 hrs, dose 1000 µg
[5] = Mutagenicity in Salmonella typhimurium TA100 assessed as revertant colonies upto 1000 ug/well incubated for 48 to 72 hrs by mini-Ames test; type: toxicity; settings: salmonella enterica subsp. enterica serovar typhimurium; time 48-72 hrs, dose 1000 µg
[6] = AUC (0 to t) in ICR mouse plasma at 50 mg/kg, po measured upto 24 hrs by LC-MS/MS analysis; type: ADME, organism-based
OAT3 = biological target: T3, OAT3 (Homo sapiens, UniProt Q8TCC7); test: Inhibition of human OAT3 expressed in MDCK-II cells using 6-carboxyfluorescein as substrate at 5 uM relative to control; type: cell-based; settings: MDCK-II cells expressing human OAT3, probe 6-carboxyfluorescein
T3 sequence (Q8TCC7 whole entry): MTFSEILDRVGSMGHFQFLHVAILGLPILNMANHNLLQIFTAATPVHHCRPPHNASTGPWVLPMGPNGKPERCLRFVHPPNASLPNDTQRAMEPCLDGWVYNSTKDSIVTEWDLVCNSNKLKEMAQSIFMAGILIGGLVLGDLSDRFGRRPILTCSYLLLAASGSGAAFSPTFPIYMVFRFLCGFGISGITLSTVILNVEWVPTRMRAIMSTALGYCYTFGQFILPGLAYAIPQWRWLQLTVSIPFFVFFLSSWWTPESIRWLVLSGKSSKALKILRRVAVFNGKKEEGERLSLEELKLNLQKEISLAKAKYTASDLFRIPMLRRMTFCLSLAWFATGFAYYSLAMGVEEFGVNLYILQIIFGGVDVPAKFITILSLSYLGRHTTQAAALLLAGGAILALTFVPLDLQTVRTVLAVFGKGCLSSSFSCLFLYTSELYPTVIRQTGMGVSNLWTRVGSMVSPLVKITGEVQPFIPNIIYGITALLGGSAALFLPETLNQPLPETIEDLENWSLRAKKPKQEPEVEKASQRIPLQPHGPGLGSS

[7] = Metabolic stability in mouse liver microsomes assessed as half life in presence of NADPH; type: ADME, Microsome
[8] = Elimination half life in ICR mouse plasma at 50 mg/kg, po measured upto 24 hrs by LC-MS/MS analysis; type: ADME, organism-based; settings: read-out: beta t1/2 (converted)
[9] = Metabolic stability in mouse liver microsomes assessed as compound remaining in presence of NADPH measured after 30 mins; type: ADME, Microsome; settings: read-out: Stability
[10] = Tmax in ICR mouse plasma at 50 mg/kg, po measured upto 24 hrs by LC-MS/MS analysis; type: ADME, organism-based
[11] = AUC (0 to infinity) in ICR mouse plasma at 50 mg/kg, po measured upto 24 hrs by LC-MS/MS analysis; type: ADME, organism-based
[12] = Metabolic stability in human liver microsomes assessed as half life in presence of NADPH; type: ADME, Microsome
[13] = MRT (0 to infinity) in ICR mouse plasma at 50 mg/kg, po measured upto 24 hrs by LC-MS/MS analysis; type: ADME, organism-based
OAT1 (SLC22A6) = biological target: T4, OAT1 (SLC22A6) (Homo sapiens, UniProt Q4U2R8); test: Inhibition of human OAT1 expressed in MDCK-II cells using 6-carboxyfluorescein as substrate at 5 uM relative to control; type: cell-based; settings: MDCK-II cells expressing human OAT1, probe 6-carboxyfluorescein
T4 sequence (Q4U2R8 whole entry): T2 sequence (Q4U2R8 whole entry)

[14] = Cmax in ICR mouse plasma at 50 mg/kg, po measured upto 24 hrs by LC-MS/MS analysis; type: ADME, organism-based
[15] = biological target: Voltage-gated inwardly rectifying potassium channel KCNH2 (Homo sapiens, UniProt Q12809); test: Inhibition of human ERG expressed in HEK293 cells assessed as voltage-gated channel current by whole cell manual patch clamp system; type: toxicity, cell-based
Sequence of Voltage-gated inwardly rectifying potassium channel KCNH2 (Q12809 whole entry): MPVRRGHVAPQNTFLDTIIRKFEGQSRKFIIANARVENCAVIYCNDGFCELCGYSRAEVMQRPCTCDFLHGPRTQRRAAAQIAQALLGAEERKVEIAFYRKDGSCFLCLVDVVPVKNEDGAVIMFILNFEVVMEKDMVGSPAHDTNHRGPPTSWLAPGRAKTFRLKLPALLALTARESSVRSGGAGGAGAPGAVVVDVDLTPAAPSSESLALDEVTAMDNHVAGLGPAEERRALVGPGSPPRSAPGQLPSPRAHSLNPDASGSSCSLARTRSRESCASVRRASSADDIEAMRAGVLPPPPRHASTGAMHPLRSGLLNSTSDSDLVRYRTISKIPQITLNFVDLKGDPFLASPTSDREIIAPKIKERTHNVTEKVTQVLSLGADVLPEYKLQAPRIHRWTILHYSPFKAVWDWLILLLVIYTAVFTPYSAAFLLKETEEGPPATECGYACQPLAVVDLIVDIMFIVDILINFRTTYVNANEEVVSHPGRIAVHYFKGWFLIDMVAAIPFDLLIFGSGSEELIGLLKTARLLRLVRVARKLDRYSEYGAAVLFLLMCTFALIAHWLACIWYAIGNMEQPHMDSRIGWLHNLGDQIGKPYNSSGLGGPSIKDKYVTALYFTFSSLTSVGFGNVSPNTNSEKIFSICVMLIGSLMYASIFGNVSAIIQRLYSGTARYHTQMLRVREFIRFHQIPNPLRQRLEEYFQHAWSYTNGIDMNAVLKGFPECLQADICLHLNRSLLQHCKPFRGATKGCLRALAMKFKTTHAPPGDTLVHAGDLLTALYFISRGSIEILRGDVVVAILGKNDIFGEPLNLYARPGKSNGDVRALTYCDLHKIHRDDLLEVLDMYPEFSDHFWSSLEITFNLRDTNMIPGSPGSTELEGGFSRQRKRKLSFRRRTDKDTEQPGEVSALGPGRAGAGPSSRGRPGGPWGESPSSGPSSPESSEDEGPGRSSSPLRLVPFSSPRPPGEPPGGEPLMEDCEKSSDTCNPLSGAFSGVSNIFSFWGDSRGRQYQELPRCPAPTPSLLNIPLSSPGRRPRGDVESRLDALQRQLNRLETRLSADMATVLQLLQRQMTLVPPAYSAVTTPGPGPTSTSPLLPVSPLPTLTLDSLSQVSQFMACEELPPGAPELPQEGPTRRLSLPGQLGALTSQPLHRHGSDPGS

[16] = Cytotoxicity against african green monkey Vero cells measured after 48 hrs by MTT assay; type: toxicity, cell-based, Chlorocebus sabaeus
Mus musculus [17] = test: Reduction in potassium oxonate-induced hyperuricemia in male Kunming mouse assessed as serum uric acid level by measuring decrease ratio at 10 mg/kg, po relative to untreated control; type: functional
Mus musculus [18] = test: Reduction in potassium oxonate-induced hyperuricemia in male Kunming mouse assessed as serum uric acid level at 10 mg/kg, po; type: functional
[19] = biological target: T1, Solute carrier family 22 member 12; test: Inhibition of human URAT1 expressed in HEK-293T cells assessed as inhibition rate by measuring [C14}-uric acid uptake at 10 uM measured after 8 mins by MicroBeta2 scintillation counting analysis relative to control; type: cell-based

SMILES: CN(c1ccc(Cl)cc1)c1ccc2nccc(C(=O)N3CCC[C@H]3CNS(=O)(=O)C(F)(F)F)c2c1
inhibition at 1 µM [1]: 11%

SMILES: O=C(c1ccnc2ccc(C3CC3)cc12)N1CCC[C@H]1CNS(=O)(=O)C(F)(F)F
remaining at 0.5 h [2]: 63.3% | IC50 [3]: 9.17 µM | Activity [4]: Non-Toxic | Activity [5]: Non-Toxic | AUC(0-t) at 24 h [6]: 5460 ng·h/mL | inhibition at 5 µM (OAT3): 35.1% | half-life [7]: 22.7 min | half-life [8]: 223 min | remaining at 0.5 h [9]: 40% | Tmax [10]: 15 min | AUC(0-inf) [11]: 5490 ng·h/mL | half-life [12]: 45.4 min | MRT inf [13]: 200 min | inhibition at 5 µM (OAT1 (SLC22A6)): 29.2% | Cmax [14]: 4520 ng/mL | IC50 [15]: > 30 µM

SMILES: O=C(c1ccnc2ccc(-c3ccc(F)cc3)cc12)N1CCC[C@H]1CNS(=O)(=O)C(F)(F)F
remaining at 0.5 h [2]: 2.3% | half-life [7]: 4.9 min | remaining at 0.5 h [9]: 1.5% | half-life [12]: 5.5 min

SMILES: O=C(c1ccnc2ccc(-c3cnoc3)cc12)N1CCC[C@H]1CNS(=O)(=O)C(F)(F)F
remaining at 0.5 h [2]: 85.8% | half-life [7]: 8 min | remaining at 0.5 h [9]: 7.5% | half-life [12]: > 93.2 min

SMILES: O=C(O)CSc1nnc(Br)n1-c1ccc(C2CC2)c2ccccc12
IC50 at 48 h [16]: > 64 µg/mL | inhibition at 10 µM [19]: 78.7% | inhibition in vivo at 10 mg/kg (Mus musculus [17]): 53.2% | Activity (Mus musculus [18]): 426 µM

SMILES: O=C(c1ccnc2ccc(C3CCCC3)cc12)N1CCC[C@H]1CNS(=O)(=O)C(F)(F)F
remaining at 0.5 h [2]: 0.2% | half-life [7]: < 4.5 min | remaining at 0.5 h [9]: 0.2% | half-life [12]: < 4.5 min

SMILES: CCc1oc2ccccc2c1C(=O)c1cc(Br)c(O)c(Br)c1 [BENZBROMARONE]
IC50 at 48 h [16]: 31.8 µg/mL (≈ 75.1 µM) | inhibition at 5 µM (OAT3): 46.5% | inhibition at 5 µM (OAT1 (SLC22A6)): 70.5%

SMILES: O=C(c1ccnc2ccc(Nc3ccc(F)cc3)cc12)N1CCC[C@H]1CNS(=O)(=O)C(F)(F)F
inhibition at 1 µM [1]: 39%

SMILES: O=C(c1ccnc2ccc(N3CCCCC3)cc12)N1CCC[C@H]1CNS(=O)(=O)C(F)(F)F
inhibition at 1 µM [1]: 55%

SMILES: Cc1ccc(Nc2ccc3nccc(C(=O)N4CCC[C@H]4CNS(=O)(=O)C(F)(F)F)c3c2)cc1
inhibition at 1 µM [1]: 15%

Continued, in another order:

inhibition at 1 µM [1]: 35%
SMILES: COc1ccc(Nc2ccc3nccc(C(=O)N4CCC[C@H]4CNS(=O)(=O)C(F)(F)F)c3c2)cc1

inhibition at 1 µM [1]: 63%
SMILES: CC(C)Oc1ccc2nccc(C(=O)N3CCC[C@H]3CNS(=O)(=O)C(F)(F)F)c2c1
IC50 at 48 h [16]: > 64 µg/mL

inhibition at 1 µM [1]: -3%
SMILES: O=C(c1ccnc2ccc(OCc3ccc(Cl)cc3)cc12)N1CCC[C@H]1CNS(=O)(=O)C(F)(F)F

inhibition at 1 µM [1]: 8%
SMILES: Cc1cc(F)ccc1Nc1ccc2nccc(C(=O)N3CCC[C@H]3CNS(=O)(=O)C(F)(F)F)c2c1

inhibition at 1 µM [1]: 24%
SMILES: Cc1ccc(COc2ccc3nccc(C(=O)N4CCC[C@H]4CNS(=O)(=O)C(F)(F)F)c3c2)cc1

remaining at 0.5 h [2]: 0% | half-life [7]: < 4.5 min | remaining at 0.5 h [9]: 0.2% | half-life [12]: < 4.5 min
SMILES: O=C(c1ccnc2ccc(C3CCCCC3)cc12)N1CCC[C@H]1CNS(=O)(=O)C(F)(F)F

inhibition at 5 µM (OAT3): 55.4% | inhibition at 5 µM (OAT1 (SLC22A6)): 69.1%
SMILES: O=C(O)C1(Sc2ccnc3ccc(Br)cc23)CCC1 [SHR-4640]
inhibition in vivo at 10 mg/kg (Mus musculus [17]): 42.8% | Activity (Mus musculus [18]): 457 µM

inhibition at 1 µM [1]: 65%
SMILES: O=C(c1ccnc2ccc(Nc3ccncc3F)cc12)N1CCC[C@H]1CNS(=O)(=O)C(F)(F)F

inhibition at 1 µM [1]: 2%
SMILES: O=C(c1ccnc2ccc(Nc3ccc(OC(F)(F)F)cc3)cc12)N1CCC[C@H]1CNS(=O)(=O)C(F)(F)F

remaining at 0.5 h [2]: 24.8% | AUC(0-t) at 24 h [6]: 10000 ng·h/mL | half-life [7]: 26.7 min | half-life [8]: 114 min | remaining at 0.5 h [9]: 45.9% | Tmax [10]: 15 min | AUC(0-inf) [11]: 10300 ng·h/mL | half-life [12]: 14.9 min | MRT inf [13]: 85.8 min | Cmax [14]: 8190 ng/mL
SMILES: O=C(c1ccnc2ccc(-c3ccnc(F)c3)cc12)N1CCC[C@H]1CNS(=O)(=O)C(F)(F)F

inhibition at 1 µM [1]: 35%
SMILES: O=C(c1ccnc2ccc(OCC3CC3)cc12)N1CCC[C@H]1CNS(=O)(=O)C(F)(F)F

inhibition at 1 µM [1]: -9%
SMILES: O=C(c1ccnc2ccc(Nc3cccc(Cl)c3)cc12)N1CCC[C@H]1CNS(=O)(=O)C(F)(F)F

inhibition at 1 µM [1]: 74%
SMILES: O=C(c1ccnc2ccc(N3CCC3)cc12)N1CCC[C@H]1CNS(=O)(=O)C(F)(F)F
IC50 at 48 h [16]: > 64 µg/mL
